The supplement of paper PMC8920030

Key:
Settings in all cases: growth mode: biofilm, 24 h; exposure time: 24 h
colistin [1] = compound: T1, CCC(C)CCCC(=O)N[C@@H](CCN)C(=O)N[C@H](C(=O)N[C@@H](CCN)C(=O)N[C@H]1CCNC(=O)[C@H]([C@@H](C)O)NC(=O)[C@H](CCN)NC(=O)[C@H](CCN)NC(=O)[C@H](CC(C)C)NC(=O)[C@@H](CC(C)C)NC(=O)[C@H](CCN)NC1=O)[C@@H](C)O [colistin]; assay: minimum concentration of killing, 2-log CFU reduction of biofilm (MCK99); higher = more biofilm tolerance
Experimental: (§1)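 Clinical P. aeruginosa isolates were grown as static biofilms for 24 h at 37 °C in LB in half-area 96-well plates, then exposed for 24 h to colistin at 1, 4, 16, 64, 256 or […]. Surviving CFU were counted by spotting serial dilutions. MCK is the lowest tested concentration giving the stated log reduction in CFU versus an untreated control; '>1024' means the reduction was not reached at the top dose, and 1 is the lowest dose tested (≤1).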

tobramycin [2] = compound: T2, NC[C@H]1O[C@H](O[C@H]2[C@H](O)[C@@H](O[C@H]3O[C@H](CO)[C@@H](O)[C@H](N)[C@H]3O)[C@H](N)C[C@@H]2N)[C@H](N)C[C@@H]1O [tobramycin]; assay: minimum concentration eradicating biofilm below detection limit (MCK-E); higher = more biofilm tolerance
Experimental: as §1, with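 “tobramycin” for “colistin”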

tobramycin [3] = compound: T2, tobramycin; assay: minimum concentration of killing, 4-log CFU reduction of biofilm (MCK99.99); higher = more biofilm tolerance
Experimental: as §1, with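 “tobramycin” for “colistin”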

colistin [4] = compound: T1, colistin; assay: as above
Experimental: as §1

colistin [5] = compound: T1, colistin; assay: minimum concentration of killing, 1-log CFU reduction of biofilm (MCK90); higher = more biofilm tolerance
Experimental: as §1

tobramycin [6] = compound: T2, tobramycin; assay: as above
Experimental: as §1, with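 “tobramycin” for “colistin”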

colistin [7] = compound: T1, colistin; assay: minimum concentration eradicating biofilm below detection limit (MCK-E); higher = more biofilm tolerance
Experimental: as §1

tobramycin [8] = compound: T2, tobramycin; assay: minimum concentration of killing, 2-log CFU reduction of biofilm (MCK99); higher = more biofilm tolerance
Experimental: as §1, with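 “tobramycin” for “colistin”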

Row | Test System | minimum concentration of killing (colistin [1]) [µg/mL] | minimum concentration eradicating biofilm below detection limit (tobramycin [2]) [µg/mL] | minimum concentration of killing (tobramycin [3]) [µg/mL] | minimum concentration of killing (colistin [4]) [µg/mL] | minimum concentration of killing (colistin [5]) [µg/mL] | minimum concentration of killing (tobramycin [6]) [µg/mL] | minimum concentration eradicating biofilm below detection limit (colistin [7]) [µg/mL] | minimum concentration of killing (tobramycin [8]) [µg/mL]
1 | Pseudomonas aeruginosa clinical isolate F1758 | 256 | 1020 | 1020 | 256 | 64 | 16 | 256 | 256
2 | Pseudomonas aeruginosa clinical isolate F1759 | 256 | 256 | 64 | 256 | 64 | ≤ 1 | 256 | 4
3 | Pseudomonas aeruginosa clinical isolate F1764 | 64 | > 1020 | 1020 | 64 | 16 | 16 | 64 | 64
4 | Pseudomonas aeruginosa clinical isolate F1775 | 256 | 1020 | 16 | 256 | 16 | ≤ 1 | 256 | ≤ 1
5 | Pseudomonas aeruginosa clinical isolate F1800 | 256 | 1020 | 256 | 1020 | 16 | ≤ 1 | 1020 | ≤ 1
6 | Pseudomonas aeruginosa clinical isolate F1823 | 256 | > 1020 | > 1020 | 256 | 64 | 4 | 1020 | 64
7 | Pseudomonas aeruginosa clinical isolate F1856 | 16 | 1020 | 1020 | 64 | 4 | 256 | 64 | 1020
8 | Pseudomonas aeruginosa clinical isolate F1862 | 256 | 256 | 256 | 256 | 256 | 64 | 256 | 256
9 | Pseudomonas aeruginosa clinical isolate F1864 | 256 | > 1020 | 1020 | 256 | 256 | 1020 | 1020 | 1020
10 | Pseudomonas aeruginosa clinical isolate F1880 | 256 | 1020 | 1020 | 256 | 256 | 64 | 256 | 1020
11 | Pseudomonas aeruginosa clinical isolate F1957 | 256 | 1020 | 1020 | 256 | 256 | 256 | 1020 | 1020
12 | Pseudomonas aeruginosa clinical isolate F1959 | 64 | > 1020 | 1020 | 64 | 64 | 16 | 64 | 64
13 | Pseudomonas aeruginosa clinical isolate F1968 | 256 | 1020 | 256 | 256 | 64 | 4 | 256 | 64
14 | Pseudomonas aeruginosa clinical isolate F2003 | 256 | 1020 | 256 | 1020 | 64 | ≤ 1 | 1020 | 4
15 | Pseudomonas aeruginosa clinical isolate F2005 | 256 | 1020 | 16 | 256 | 16 | ≤ 1 | 256 | 16
16 | Pseudomonas aeruginosa clinical isolate F2006 | 64 | 64 | 64 | 256 | 64 | ≤ 1 | 256 | ≤ 1
17 | Pseudomonas aeruginosa clinical isolate F2010 | 256 | 1020 | 256 | 256 | 64 | 64 | 1020 | 64
18 | Pseudomonas aeruginosa clinical isolate F2017 | 64 | > 1020 | 256 | 256 | 4 | 16 | > 1020 | 256
